In US11345666B2, “Phenyl and pyridinyl substituted imidazoles as modulators of RORγT” (Janssen Pharmaceutica NV, priority 2018, dated 2022):
Read-outs that look alike come from different tables or passages of the source. Marks after values point to notes of the source that are not given here.

Assays:
full-length human RORγt = full-length human RORγt (Homo sapiens (Human), UniProt P51449); experiment: RORγt (full-length human) reporter assay, conditions A or B; assay type: cell-based; conditions: for IC50: HEK293T cells, read-out: RORγt (FL) Reporter Assay A or B, IC50; for inhibition at 6 µM: read-out: RORγt (FL) Reporter Assay A or B, % inhibition @ 6 μM, 6 μM compound concentration; for inhibition at 2 µM: 2 μM compound concentration (**)
full-length human RORγt, sequence (P51449 other isoform, or with tags, fused parts or gaps): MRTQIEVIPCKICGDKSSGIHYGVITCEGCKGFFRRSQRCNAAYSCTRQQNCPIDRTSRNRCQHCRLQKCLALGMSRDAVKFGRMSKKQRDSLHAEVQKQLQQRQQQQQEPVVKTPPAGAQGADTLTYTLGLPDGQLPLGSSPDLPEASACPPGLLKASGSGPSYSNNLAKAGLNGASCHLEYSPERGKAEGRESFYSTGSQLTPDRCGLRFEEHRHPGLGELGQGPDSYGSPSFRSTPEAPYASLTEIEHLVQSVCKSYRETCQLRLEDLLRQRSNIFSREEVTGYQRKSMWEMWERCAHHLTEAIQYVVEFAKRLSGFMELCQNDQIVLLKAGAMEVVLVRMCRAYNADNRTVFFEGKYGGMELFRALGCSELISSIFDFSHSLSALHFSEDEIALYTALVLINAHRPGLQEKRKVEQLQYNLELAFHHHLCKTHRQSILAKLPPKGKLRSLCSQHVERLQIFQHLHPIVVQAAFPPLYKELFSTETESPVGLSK
Method in brief: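 HEK293T cells transiently co-transfected (PEI) with GAL4-DBD–RORγt, GAL4-firefly luciferase and CMV-Renilla reporters; condition A 35,000 cells/well, 170.5 ng DNA/well; condition B 8750 cells/well, 42.6 ng DNA/well.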

[1] = target: human RORγt ligand binding domain (RORγt LBD) (Homo sapiens (Human), UniProt P51449); experiment: RORγt ThermoFluor assay
human RORγt ligand binding domain (RORγt LBD), sequence (P51449 other isoform, or with tags, fused parts or gaps): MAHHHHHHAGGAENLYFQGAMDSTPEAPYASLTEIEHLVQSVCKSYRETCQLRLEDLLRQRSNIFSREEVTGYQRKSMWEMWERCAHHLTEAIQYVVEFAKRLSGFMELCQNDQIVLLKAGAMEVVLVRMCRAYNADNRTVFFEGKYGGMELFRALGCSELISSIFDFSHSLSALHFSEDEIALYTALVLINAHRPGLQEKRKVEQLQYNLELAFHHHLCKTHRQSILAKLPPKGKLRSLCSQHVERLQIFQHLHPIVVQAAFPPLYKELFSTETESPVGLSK
Method in brief: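 Thermal shift of His-tagged human RORγt LBD (0.065 mg/mL) with 60 μM 1,8-ANS in 100 mM Hepes pH 7.0, 10 mM NaCl, 2.5 mM GSH, 0.002% Tween-20, heated at 1° C./min. Compounds in 1:2 series from a 10 mM DMSO stock; KD estimated from ΔTm using protein unfolding thermodynamics.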

[2] = 3 μM compound concentration (*), read-out: RORγt (FL) Reporter Assay A or B, % inhibition
[3] = read-out: RORγt (FL) Reporter Assay A or B, % inhibition
[4] = 0.67 μM compound concentration (****), read-out: RORγt (FL) Reporter Assay A or B, % inhibition

| inhibition at 3 µM (full-length human RORγt; [2]) | IC50 (full-length human RORγt) | Kd [1] | SMILES | also measured |
| --- | --- | --- | --- | --- |
| 72% | 37 nM | 9.5 nM | Cc1nc(C(=O)NC[C@H]2CC[C@H](S(C)(=O)=O)CC2)c(Cl)n1-c1ncc(CC(C)(C)C(F)(F)F)cc1OC(F)F [Example 133, 5-Chloro-1-(3-(difluoromethoxy)-5-(3,3,3-trifluoro-2,2-dimethylpropyl)pyridin-2-yl)-2-methyl-N-(((1r,4r)-4-(methylsulfonyl)cyclohexyl)methyl)-1H-imidazole-4-carboxamide] |  |
| 84% | 11 nM | 2.5 nM | Cc1nc(C(=O)NC[C@H]2CC[C@H](S(C)(=O)=O)CC2)c(C#N)n1-c1ccc(CC(C)(C)C(F)(F)F)cc1OC(F)F [Example 53, 5-Cyano-1-(2-(difluoromethoxy)-4-(3,3,3-trifluoro-2,2-dimethylpropyl)phenyl)-2-methyl-N-(((1r,4r)-4-(methylsulfonyl)cyclohexyl)methyl)-1H-imidazole-4-carboxamide] |  |
|  | 1400 nM | 830 nM | CCc1nc(C(=O)NC[C@]2(O)CC[C@@H](S(C)(=O)=O)CC2)c(C#N)n1-c1ncc(CCC(F)(F)F)cc1OC [Example 120, 5-Cyano-2-ethyl-N-(((1s,4s)-1-hydroxy-4-(methylsulfonyl)cyclohexyl)methyl)-1-(3-methoxy-5-(3,3,3-trifluoropropyl)pyridin-2-yl)-1H-imidazole-4-carboxamide] | inhibition at 6 µM (full-length human RORγt): 57% |
| 76% | 440 nM | 110 nM | CCc1nc(C(=O)NC[C@]2(O)CC[C@@H](S(C)(=O)=O)CC2)c(C)n1-c1ncc(CC(C(F)(F)F)C(F)(F)F)cc1OC(F)F [Example 76, 1-(3-(Difluoromethoxy)-5-(3,3,3-trifluoro-2-(trifluoromethyl)propyl)pyridin-2-yl)-2-ethyl-N-(((1s,4s)-1-hydroxy-4-(methylsulfonyl)cyclohexyl)methyl)-5-methyl-1H-imidazole-4-carboxamide] |  |
| 100% | 89 nM | 19 nM | CCc1nc(C(=O)NC[C@]2(O)CC[C@@H](S(C)(=O)=O)CC2)c(Cl)n1-c1ncc(CC(C(F)(F)F)C(F)(F)F)cc1OC(F)F [Example 62, 5-Chloro-1-(3-(difluoromethoxy)-5-(3,3,3-trifluoro-2-(trifluoromethyl)propyl)pyridin-2-yl)-2-ethyl-N-(((1s,4s)-1-hydroxy-4-(methylsulfonyl)cyclohexyl)methyl)-1H-imidazole-4-carboxamide] |  |
|  | 84 nM | 37 nM | CCc1nc(C(=O)NC[C@]2(C#N)CC[C@@H](S(C)(=O)=O)CC2)c(C#N)n1-c1ncc(CC(C)(C)C(F)(F)F)cc1OC [Example 124, 5-Cyano-N-(((1s*,4s*)-1-cyano-4-(methylsulfonyl)cyclohexyl)methyl)-2-ethyl-1-(3-methoxy-5-(3,3,3-trifluoro-2,2-dimethylpropyl)pyridin-2-yl)-1H-imidazole-4-carboxamide] | inhibition at 6 µM (full-length human RORγt): 105% |
|  | 2.7 nM | 0.19 nM | C#Cc1c(C(=O)NC[C@H]2CC[C@H](S(C)(=O)=O)CC2)nc(CC)n1-c1ccc(CC(C)(C)C(F)(F)F)cc1OC(F)F [Example 41, 1-(2-(Difluoromethoxy)-4-(3,3,3-trifluoro-2,2-dimethylpropyl)phenyl)-2-ethyl-5-ethynyl-N-(((1r,4r)-4-(methylsulfonyl)cyclohexyl)methyl)-1H-imidazole-4-carboxamide] | inhibition at 0.67 µM (full-length human RORγt; [4]): 106% |
|  | 96 nM | 7 nM | CCc1nc(C(=O)NC[C@H]2CC[C@H](S(C)(=O)=O)CC2)c(Cl)n1-c1ncc(C[C@@H](C)C(F)(F)F)cc1OC(F)F (single isomer, unassigned) [Example 78, 5-Chloro-1-(3-(difluoromethoxy)-5-((R*)-3,3,3-trifluoro-2-methylpropyl)pyridin-2-yl)-2-ethyl-N-(((1r,4R)-4-(methylsulfonyl)cyclohexyl)methyl)-1H-imidazole-4-carboxamide] | inhibition at 1 µM (full-length human RORγt; 1 μM compound concentration (***), read-out: RORγt (FL) Reporter Assay A or B, % inhibition): 94% |
|  | 130 nM | 45 nM | COc1cc(CC(C)(C)C(F)(F)F)ccc1-n1cc(C(=O)NC[C@H]2CC[C@H](S(C)(=O)=O)CC2)nc1C [Example 129, 1-(2-Methoxy-4-(3,3,3-trifluoro-2,2-dimethylpropyl)phenyl)-2-methyl-N-(((1r,4r)-4-(methylsulfonyl)cyclohexyl)methyl)-1H-imidazole-4-carboxamide] | inhibition at 0.22 µM (full-length human RORγt; 0.22 μM compound concentration (******), read-out: RORγt (FL) Reporter Assay A or B, % inhibition): 47% |
| 90% | 160 nM | 28 nM | CCc1nc(C(=O)NC[C@]2(O)CC[C@@H](S(C)(=O)=O)CC2)c(Cl)n1-c1ncc(C[C@H](C)C(F)(F)F)cc1OC(F)F (single isomer, unassigned) [Example 71, 5-Chloro-1-(3-(difluoromethoxy)-5-((S*)-3,3,3-trifluoro-2-methylpropyl)pyridin-2-yl)-2-ethyl-N-(((1s,4R)-1-hydroxy-4-(methylsulfonyl)cyclohexyl)methyl)-1H-imidazole-4-carboxamide] |  |
|  | 1200 nM | 290 nM | CCc1nc(C(=O)NC[C@]2(O)CC[C@@H](S(C)(=O)=O)CC2)c(C#N)n1-c1ccc(CCC(F)(F)F)cc1F [Example 95, 5-Cyano-2-ethyl-1-(2-fluoro-4-(3,3,3-trifluoropropyl)phenyl)-N-(((1s,4s)-1-hydroxy-4-(methylsulfonyl)cyclohexyl)methyl)-1H-imidazole-4-carboxamide] | inhibition at 6 µM (full-length human RORγt): 72% |
|  | 28 nM | 11 nM | CCc1nc(C(=O)NC[C@]2(O)CC[C@@H](S(C)(=O)=O)CC2)c(F)n1-c1ccc(CC(C)(C)C(F)(F)F)cc1OC(F)F [Example 35, 1-(2-(Difluoromethoxy)-4-(3,3,3-trifluoro-2,2-dimethylpropyl)phenyl)-2-ethyl-5-fluoro-N-(((1s,4s)-1-hydroxy-4-(methylsulfonyl)cyclohexyl)methyl)-1H-imidazole-4-carboxamide] | inhibition at 6 µM (full-length human RORγt): 97% |
|  | 36 nM | 8 nM | CCc1nc(C(=O)NC[C@]2(O)CC[C@@H](S(C)(=O)=O)CC2)c(Cl)n1-c1ccc(CC(C)(C)C(F)(F)F)cc1F [Example 102, 5-Chloro-2-ethyl-1-(2-fluoro-4-(3,3,3-trifluoro-2,2-dimethylpropyl)phenyl)-N-(((1s,4s)-1-hydroxy-4-(methylsulfonyl)cyclohexyl)methyl)-1H-imidazole-4-carboxamide] | inhibition at 0.67 µM (full-length human RORγt; [4]): 74% |
| 84% | 220 nM | 26 nM | CCc1nc(C(=O)NC[C@]2(O)CC[C@@H](S(C)(=O)=O)CC2)c(Cl)n1-c1ncc(C[C@@H](C)C(F)(F)F)cc1OC(F)F (single isomer, unassigned) [Example 79, 5-Chloro-1-(3-(difluoromethoxy)-5-((R*)-3,3,3-trifluoro-2-methylpropyl)pyridin-2-yl)-2-ethyl-N-(((1s,4S)-1-hydroxy-4-(methylsulfonyl)cyclohexyl)methyl)-1H-imidazole-4-carboxamide] |  |
|  | 330 nM | 93 nM | CCc1nc(C(=O)NC[C@H]2CC[C@H](S(C)(=O)=O)CC2)c(C#N)n1-c1ccc(CCC(F)(F)F)cc1F [Example 93, 5-Cyano-2-ethyl-1-(2-fluoro-4-(3,3,3-trifluoropropyl)phenyl)-N-(((1r,4r)-4-(methylsulfonyl)cyclohexyl)methyl)-1H-imidazole-4-carboxamide] | inhibition at 2 µM (full-length human RORγt; [3]): 65% |

| SMILES | inhibition at 3 µM (full-length human RORγt; [2]) | IC50 (full-length human RORγt) | Kd [1] | also measured |
| --- | --- | --- | --- | --- |
| CCc1nc(C(=O)NC[C@]2(O)CC[C@@H](S(C)(=O)=O)CC2)c(Cl)n1-c1ccc(CC(C)C)cc1OC [Example 90, 5-Chloro-2-ethyl-N-(((1s,4s)-1-hydroxy-4-(methylsulfonyl)cyclohexyl)methyl)-1-(4-isobutyl-2-methoxyphenyl)-1H-imidazole-4-carboxamide] |  | 21 nM | 0.31 nM | inhibition at 2 µM (full-length human RORγt; [3]): 67% |
| CCc1nc(C(=O)NC[C@H]2CC[C@H](S(C)(=O)=O)C[C@@H]2O)c(Cl)n1-c1ncc(CC(C)(C)C(F)(F)F)cc1OC(F)F (single isomer, unassigned) [Example 58, 5-Chloro-1-(3-(difluoromethoxy)-5-(3,3,3-trifluoro-2,2-dimethylpropyl)pyridin-2-yl)-2-ethyl-N-(((1R*,2S*,4S*)-2-hydroxy-4-(methylsulfonyl)cyclohexyl)methyl)-1H-imidazole-4-carboxamide] |  | 160 nM | 12 nM | inhibition at 3 µM (full-length human RORγt; read-out: RORγt (FL) Reporter Assay A or B, % inhibition, 3 μM compound concentration (*)): 121% |
| CCc1nc(C(=O)NC[C@]2(C#N)CC[C@@H](S(C)(=O)=O)CC2)c(C#N)n1-c1ccc(CC(C)(C)C(F)(F)F)cc1OC(F)F [Example 37, 5-Cyano-N-(((1s*,4s*)-1-cyano-4-(methylsulfonyl)cyclohexyl)methyl)-1-(2-(difluoromethoxy)-4-(3,3,3-trifluoro-2,2-dimethylpropyl)phenyl)-2-ethyl-1H-imidazole-4-carboxamide] |  | 5.3 nM | 0.87 nM | RORγt (FL) Reporter Assay A or B, % inhibition (full-length human RORγt; 0.67 μM compound concentration (****)): 105**** % |
